The values below come from ChEMBL document CHEMBL1139236, “Introduction of non-natural amino acid residues into the substrate-specific P1 position of trypsin inhibitor SFTI-1 yields potent chymotrypsin and cathepsin G inhibitors” (Bioorg Med Chem, 2009).

Bridge positions count the residues as written; N and C are the ends. Square brackets hold non-standard residues; d marks the D form. Peptide text beside a SMILES is read from it. Phe(4-NO2) = N[C@@H](Cc1ccc([N+](=O)[O-])cc1)C(=O)O; Phe(4-guanidino) = N=C(N)Nc1ccc(C[C@H](N)C(=O)O)cc1; Phe(4-NH2) = Nc1ccc(C[C@H](N)C(=O)O)cc1; Phe(4-F) = N[C@@H](Cc1ccc(F)cc1)C(=O)O; Phe(4-Me) = Cc1ccc(C[C@H](N)C(=O)O)cc1; 4Pal = N[C@@H](Cc1ccncc1)C(=O)O

Broadly, the Ki is the equilibrium dissociation constant of an inhibitor or competing ligand from its target.

The target in data set [1] is Chymotrypsinogen A (Bos taurus) (UniProt P00766). Description: Inhibition of bovine alpha-chymotrypsin assessed as association equilibrium constant.
Data set [2] deals with T1, Cathepsin G (Homo sapiens) (UniProt P08311).
T1 sequence (whole entry): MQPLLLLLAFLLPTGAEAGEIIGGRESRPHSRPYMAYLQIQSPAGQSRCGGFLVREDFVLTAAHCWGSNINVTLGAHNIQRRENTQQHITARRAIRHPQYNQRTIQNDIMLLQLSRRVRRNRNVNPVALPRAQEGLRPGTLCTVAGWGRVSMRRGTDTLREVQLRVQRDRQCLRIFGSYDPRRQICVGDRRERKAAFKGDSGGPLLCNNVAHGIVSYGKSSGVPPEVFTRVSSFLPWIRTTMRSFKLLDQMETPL
Kind of data set: Inhibition of cathepsin G assessed as association equilibrium constant.

Data set [3] addresses T1, Cathepsin G (Homo sapiens). Kind of data set: Inhibition of cathepsin G assessed as association equilibrium constant relative to [Phe5]SFTI-1.
The target in data set [4] is T2, Cathepsin G (Homo sapiens, UniProt P08311).
T2 sequence (P08311 whole entry): T1 sequence (whole entry)
Kind of data set: Inhibition of cathepsin G.

Data set [5] addresses Chymotrypsinogen A (Bos taurus) (UniProt P00766). Description: Inhibition of bovine alpha-chymotrypsin assessed as association equilibrium constant relative to [Phe5]SFTI-1.
For data set [6], the system named is Serum. Description: Stability in human serum at 2 mg/mL up to 24 hrs. The data set is classed as ADME, cell-free.

As to `CC[C@H](C)[C@@H]1NC(=O)[C@@H]2CCCN2C(=O)[C@@H]2CCCN2C(=O)[C@H]([C@@H](C)CC)NC(=O)[C@H](CO)NC(=O)[C@H](CCCCN)NC(=O)[C@H]([C@@H](C)O)NC(=O)[C@@H]2CSSC[C@H](NC1=O)C(=O)N[C@@H](Cc1ccccc1)C(=O)N1CCC[C@H]1C(=O)N[C@@H](CC(=O)O)C(=O)NCC(=O)N[C@@H](CCCNC(=N)N)C(=O)N2`, the Ka in data set [1] is 5.2 ×10⁶ /M; in data set [2], 5.7 ×10⁶ /M. In data set [3], the Ratio worked out at 1.54. The Ki in data set [4] amounted to 150 pM.

Turning to `CC[C@H](C)[C@@H]1NC(=O)[C@@H]2CCCN2C(=O)[C@@H]2CCCN2C(=O)[C@H]([C@@H](C)CC)NC(=O)[C@H](CO)NC(=O)[C@H](CCCCN)NC(=O)[C@H]([C@@H](C)O)NC(=O)[C@@H](NC(=O)[C@H](CCCNC(=N)N)NC(=O)CN)CSSC[C@@H](C(=O)N[C@@H](Cc2ccccc2)C(=O)N2CCC[C@H]2C(=O)N[C@@H](CC(=O)O)C(=O)O)NC1=O`, the Ka in data set [1] was 5 ×10⁶ /M.

Regarding `CC[C@H](C)[C@@H]1NC(=O)[C@@H]2CCCN2C(=O)[C@@H]2CCCN2C(=O)[C@H]([C@@H](C)CC)NC(=O)[C@H](CO)NC(=O)[C@H](Cc2ccccc2)NC(=O)[C@H]([C@@H](C)O)NC(=O)[C@@H](NC(=O)[C@H](CCCNC(=N)N)NC(=O)CN)CSSC[C@@H](C(=O)N[C@@H](Cc2ccccc2)C(=O)N2CCC[C@H]2C(=O)N[C@@H](CC(=O)O)C(=O)O)NC1=O` (H-GRCTFSIPPICFPD-OH; disulfide 3-11), the Ka was 2 ×10⁹ /M in data set [1] and 3.7 ×10⁶ /M in data set [2].

Turning to `CC[C@H](C)[C@@H]1NC(=O)[C@@H]2CCCN2C(=O)[C@@H]2CCCN2C(=O)[C@H]([C@@H](C)CC)NC(=O)[C@H](CO)NC(=O)[C@H](Cc2ccc(O)cc2)NC(=O)[C@H]([C@@H](C)O)NC(=O)[C@@H](NC(=O)[C@H](CCCNC(=N)N)NC(=O)CN)CSSC[C@@H](C(=O)N[C@@H](Cc2ccccc2)C(=O)N2CCC[C@H]2C(=O)N[C@@H](CC(=O)O)C(=O)O)NC1=O` (H-GRCTYSIPPICFPD-OH; disulfide 3-11), the Ratio in data set [5] stood at 9.5. Further, the Ka in data set [1] is 1.9 ×10¹⁰ /M; in data set [2], less than 1 ×10⁵ /M.

`CC[C@H](C)[C@@H]1NC(=O)[C@@H]2CCCN2C(=O)[C@@H]2CCCN2C(=O)[C@H]([C@@H](C)CC)NC(=O)[C@H](CO)NC(=O)[C@H](Cc2ccncc2)NC(=O)[C@H]([C@@H](C)O)NC(=O)[C@@H](NC(=O)[C@H](CCCNC(=N)N)NC(=O)CN)CSSC[C@@H](C(=O)N[C@@H](Cc2ccccc2)C(=O)N2CCC[C@H]2C(=O)N[C@@H](CC(=O)O)C(=O)O)NC1=O` (H-GRCT[4Pal]SIPPICFPD-OH; disulfide 3-11): in data set [5], the Ratio came out at 5.5. Moreover, the Ka in data set [1] is 1.1 ×10¹⁰ /M; in data set [2], less than 1 ×10⁵ /M.

With `CC[C@H](C)[C@@H]1NC(=O)[C@@H]2CCCN2C(=O)[C@@H]2CCCN2C(=O)[C@H]([C@@H](C)CC)NC(=O)[C@H](CO)NC(=O)[C@H](Cc2ccc(F)cc2)NC(=O)[C@H]([C@@H](C)O)NC(=O)[C@@H](NC(=O)[C@H](CCCNC(=N)N)NC(=O)CN)CSSC[C@@H](C(=O)N[C@@H](Cc2ccccc2)C(=O)N2CCC[C@H]2C(=O)N[C@@H](CC(=O)O)C(=O)O)NC1=O` (H-GRCT[Phe(4-F)]SIPPICFPD-OH; disulfide 3-11), the figures for the Ratio in data set [5] and in data set [3] were 15 and 1.02, respectively. The figures for the Ka in data set [1] and in data set [2] were 3 ×10¹⁰ /M and 3.8 ×10⁶ /M, respectively.

As for `CC[C@H](C)[C@@H]1NC(=O)[C@@H]2CCCN2C(=O)[C@@H]2CCCN2C(=O)[C@H]([C@@H](C)CC)NC(=O)[C@H](CO)NC(=O)[C@H](Cc2ccc(C)cc2)NC(=O)[C@H]([C@@H](C)O)NC(=O)[C@@H](NC(=O)[C@H](CCCNC(=N)N)NC(=O)CN)CSSC[C@@H](C(=O)N[C@@H](Cc2ccccc2)C(=O)N2CCC[C@H]2C(=O)N[C@@H](CC(=O)O)C(=O)O)NC1=O` (H-GRCT[Phe(4-Me)]SIPPICFPD-OH; disulfide 3-11), the Ratio in data set [5] came out at 12.5; in data set [3], 0.76. For the same compound, the Ka in data set [1] was 2.5 ×10¹⁰ /M; in data set [2], 2.8 ×10⁶ /M.

`CC[C@H](C)[C@@H]1NC(=O)[C@@H]2CCCN2C(=O)[C@@H]2CCCN2C(=O)[C@H]([C@@H](C)CC)NC(=O)[C@H](CO)NC(=O)[C@H](Cc2ccc(N)cc2)NC(=O)[C@H]([C@@H](C)O)NC(=O)[C@@H](NC(=O)[C@H](CCCNC(=N)N)NC(=O)CN)CSSC[C@@H](C(=O)N[C@@H](Cc2ccccc2)C(=O)N2CCC[C@H]2C(=O)N[C@@H](CC(=O)O)C(=O)O)NC1=O` (H-GRCT[Phe(4-NH2)]SIPPICFPD-OH; disulfide 3-11): the Ratio was determined as 9.5 in data set [5] and 0.97 in data set [3]. For the same compound, the Ka was 1.9 ×10¹⁰ /M in data set [1] and 3.6 ×10⁶ /M in data set [2].

For `CC[C@H](C)[C@@H]1NC(=O)[C@@H]2CCCN2C(=O)[C@@H]2CCCN2C(=O)[C@H]([C@@H](C)CC)NC(=O)[C@H](CO)NC(=O)[C@H](Cc2ccc([N+](=O)[O-])cc2)NC(=O)[C@H]([C@@H](C)O)NC(=O)[C@@H](NC(=O)[C@H](CCCNC(=N)N)NC(=O)CN)CSSC[C@@H](C(=O)N[C@@H](Cc2ccccc2)C(=O)N2CCC[C@H]2C(=O)N[C@@H](CC(=O)O)C(=O)O)NC1=O` (H-GRCT[Phe(4-NO2)]SIPPICFPD-OH; disulfide 3-11), the Ratio in data set [5] came to 13. Moreover, the Ka in data set [1] was 2.6 ×10¹⁰ /M; in data set [2], less than 1 ×10⁵ /M.

Turning to `CC[C@H](C)[C@@H]1NC(=O)[C@@H]2CCCN2C(=O)[C@@H]2CCCN2C(=O)[C@H]([C@@H](C)CC)NC(=O)[C@H](CO)NC(=O)[C@H](Cc2ccc(NC(=N)N)cc2)NC(=O)[C@H]([C@@H](C)O)NC(=O)[C@@H](NC(=O)[C@H](CCCNC(=N)N)NC(=O)CN)CSSC[C@@H](C(=O)N[C@@H](Cc2ccccc2)C(=O)N2CCC[C@H]2C(=O)N[C@@H](CC(=O)O)C(=O)O)NC1=O` (H-GRCT[Phe(4-guanidino)]SIPPICFPD-OH; disulfide 3-11), the Ratio amounted to 0.09 in data set [5] and 2.19 in data set [3]. Moreover, the Ka in data set [1] is 1.8 ×10⁸ /M; in data set [2], 8.1 ×10⁷ /M. Also, the Stability result in data set [6] is “Stable”.
